These results are taken from patent publication US5092876A, “Cell attachment peptides derived from amyloid P component” (The United States of America as represented by the …, priority 1989, dated 1992).

The test system of this test is cells. The experiment in a line: Cell attachment assay, peptides/proteins from amyloid P component coated on plates (Table I). The class given is cell-based. Particulars: plates coated with peptide/protein (20 uM); average ± SEM. Here is the method: All cell types used were obtained from American Type Culture Collection, Rockville, Md. and were maintained in Dulbecco's modified Eagle's medium (DMEM) supplemented with 10% fetal calf serum (FCS). The cells were grown to approximately 80% confluency in Falcon T75 flasks. For cell attachment assays, cells were washed with PBS (pH 7.4), and then detached from the tissue culture flasks with 0.025% trypsin, 0.025% EDTA.
The cells were sedimented by low speed centrifugation, suspended in serum-free Eagle's minimal essential medium (EMEM) containing 0.05% BSA and used immediately in the cell attachment assays.
Cell attachment was assayed as described by Graf et al., Biochemistry 26, 6896-6900 (1987). 24 well plastic culture plates (Linbro, Flow Laboratories, Inc., Va.) were coated with the desired peptides at 25° C. for 16 h in 0.1M bicarbonate buffer, pH 9.6. Exposed non-specific cell attachment sites were blocked by coating the wells with 3% BSA for 1 h at 25° C. Cells, (1.1×10^5), prepared as described above, were added to each well and incubated at 37° C. for 1 h in a humidified incubator with 5% CO2 --95% air mixture. At the end of incubation, plates were gently washed twice with PBS to remove unattached cells. Attached cells were treated with trypsin and electronically counted. […] Each peptide was tested for cell attachment in six separate experiments.
Tissue culture plates (obtained from Linbro, Flow Laboratories, Inc., Va.) were coated with peptides or proteins at […]. Before coating (a) AP was denatured with 6M Guanidine HCl (GnHCl) for 2 h at 4° C. GnHCl was removed by extensive dialysis against 0.1M bicarbonate buffer, pH 9.6 at 4° C.; (b) AP was heat-denatured at 100° C. for 15 min.; (c) native AP was reduced and the free sulfhydryl groups were blocked by carboxymethylation, and (d) heat-denatured AP was treated as in (c). The values are expressed as the average ± SEM, and are reported hereinbelow in Table I.

Take “GnHCl-Denatured SAP (a): AP denatured with 6M Guanidine HCl for 2 h at 4° C., GnHCl removed by dialysis”: the No. attached cells was determined as 3835 ± 424.

As to “Heat-Denatured SAP (b): AP heat-denatured at 100° C. for 15 min.”, the No. attached cells is reported as 3926 ± 552.

In the case of “Native SAP: Amyloid P component isolated from normal human serum, 125 kDa glycoprotein”, the No. attached cells is recorded as 3125 ± 348.

Regarding “Reduced (heat-denatured SAP)/carboxymethylated (d): heat-denatured AP reduced and carboxymethylated as in (c)”, the No. attached cells was determined as 3436 ± 396.

With “Reduced (native)/carboxy-methylated (c): native AP reduced and the free sulfhydryl groups blocked by carboxymethylation”, the No. attached cells was found to be 2558 ± 428.
